Assay results as given in paper PMC7253177, “Gain of channel function and modified gating properties in TRPM3 mutants causing intellectual disability and epilepsy” (eLife, 2020).

Target: T1, TRPM3 V990M mutant (Homo sapiens, UniProt Q9HCF6, V1015M)
T1 construct: expressed in transfected cells; host or cells: HEK293T
T1 sequence (Q9HCF6 1-1325 isoform Q9HCF6-10 V990M): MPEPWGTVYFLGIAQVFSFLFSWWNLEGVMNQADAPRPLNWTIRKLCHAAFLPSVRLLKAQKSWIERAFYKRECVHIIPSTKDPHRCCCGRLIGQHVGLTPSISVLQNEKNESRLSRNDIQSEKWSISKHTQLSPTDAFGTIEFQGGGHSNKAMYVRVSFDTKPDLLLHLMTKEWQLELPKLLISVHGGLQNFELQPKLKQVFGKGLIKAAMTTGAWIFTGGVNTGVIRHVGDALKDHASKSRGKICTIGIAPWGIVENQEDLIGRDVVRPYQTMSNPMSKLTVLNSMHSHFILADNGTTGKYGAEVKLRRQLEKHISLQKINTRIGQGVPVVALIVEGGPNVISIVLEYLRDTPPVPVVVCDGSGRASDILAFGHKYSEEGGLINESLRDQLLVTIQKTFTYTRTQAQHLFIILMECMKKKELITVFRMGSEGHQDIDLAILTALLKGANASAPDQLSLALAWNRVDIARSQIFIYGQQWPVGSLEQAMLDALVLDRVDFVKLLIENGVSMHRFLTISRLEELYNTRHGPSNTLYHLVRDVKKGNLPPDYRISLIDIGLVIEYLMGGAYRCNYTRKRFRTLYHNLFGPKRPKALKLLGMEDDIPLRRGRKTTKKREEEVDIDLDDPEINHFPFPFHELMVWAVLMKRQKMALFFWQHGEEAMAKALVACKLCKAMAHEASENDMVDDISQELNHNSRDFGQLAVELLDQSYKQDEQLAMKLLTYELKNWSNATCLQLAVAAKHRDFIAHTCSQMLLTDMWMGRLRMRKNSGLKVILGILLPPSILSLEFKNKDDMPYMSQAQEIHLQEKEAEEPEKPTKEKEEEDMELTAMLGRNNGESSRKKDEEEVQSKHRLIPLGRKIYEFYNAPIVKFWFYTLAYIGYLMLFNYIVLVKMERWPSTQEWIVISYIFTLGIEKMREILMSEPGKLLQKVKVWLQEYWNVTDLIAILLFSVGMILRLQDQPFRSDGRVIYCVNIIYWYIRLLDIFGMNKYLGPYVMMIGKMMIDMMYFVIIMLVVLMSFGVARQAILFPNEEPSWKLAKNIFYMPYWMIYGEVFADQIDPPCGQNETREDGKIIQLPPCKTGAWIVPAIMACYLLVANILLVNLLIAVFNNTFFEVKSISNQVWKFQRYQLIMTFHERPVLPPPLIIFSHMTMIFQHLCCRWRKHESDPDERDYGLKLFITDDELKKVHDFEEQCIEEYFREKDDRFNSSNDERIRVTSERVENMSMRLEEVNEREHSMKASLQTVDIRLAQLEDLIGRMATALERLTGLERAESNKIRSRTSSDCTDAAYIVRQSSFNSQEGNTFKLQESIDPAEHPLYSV
Assay: Whole-cell patch clamp, HEK293T cells expressing V990M hTRPM3
Type: cell-based
Description: HEK293T cells ([Graham et al., 1977]) were cultured as described previously ([Vriens et al., 2007]) and used up in passage number 14. HEK293T cells were tested for the lack of mycoplasma and transiently transfected with 2 µg of DNA using TransIT transfection reagent (Mirus) 36–48 hr before the measurements. In case of co-cultures a ratio of 1:1 between hTRPM3-YFP WT and mutants-YFP DNA was used.
All mutants were obtained by the standard PCR overlap extension method using hTRPM3 directly linked to YFP from pCAGGS/IRES-GFP vector ([Vriens et al., 2007]). Accuracy of all mutant sequences was verified by sequencing of the entire DNA constructs.
Standard whole-cell patch-clamp recordings were performed with an EPC-10 amplifier and the PatchMasterPro Software (HEKA Elektronik, Lambrecht, Germany). Current measurements were performed at a sampling rate of 20 kHz and currents were digitally filtered at 2.9 kHz. In all measurements, 70% of the series resistance was compensated. The standard internal solution contained (in mM): 100 CsAsp, 45 CsCl, 10 EGTA, 10 HEPES, 1 MgCl2 (pH 7.2 with CsOH) or 140 potassium gluconate, 5 EGTA, 1 MgCl2, 10 HEPES and 2 NaATP (pH 7.3 with CsOH) for the measurements of Gβγ mediated inhibition and the standard extracellular solution contained (in mM): 150 NaCl, 1 MgCl2, 10 HEPES (pH 7.4 with NaOH). The standard patch pipette resistance was between 2 MΩ and 4 MΩ when filled with pipette solution. In experiments allowing Ca^2+-dependent desensitization of TRPM3, Mg^2+ was replaced by Ca^2+ in the extracellular solution, and Cs^+ was replaced by Na^+ in the pipette solution. […] The chemical ligands were dissolved in bath solution from a stock diluted in DMSO.

Row | SMILES | Activation of whole-cell currents in the absence of PS (Clt 10 µM) | Block of PS-activated currents (primidone 25 µM, PS 40 µM, ±80 mV, cells co-expressing µ-opioid receptor)
1 | Clc1ccccc1C(c1ccccc1)(c1ccccc1)n1ccnc1 [Clt, clotrimazole] | induced robust currents | –
2 | CCC1(c2ccccc2)C(=O)NCNC1=O [primidone] | – | ~ 50%
